Assay results from PubChem BioAssay AID1963865 (Molecular Pharmacology Branch, DTP, NCI, 2024).

Test system: KRAS PDC multicell spheroid viability
Assay: Anticancer human tumor 825966-067-R-J1-PDC patient-derived colon carcinoma cell line growth inhibition [KRAS2]
Details: for IC50: curve of first compound; for viability, T/C: stronger effect = lower value
From the text: Multicellular complex tumor spheroid response to RAS pathway inhibitors in combination with a targeted agents in patient-derived cell lines with oncogenic KRAS variants from multiple cancer types
A high-throughput screen of multi-cell type tumor spheroids was designed to identify active combinations of targeted small molecules and KRAS pathway inhibitors. Complex spheroids include a stromal component modeled by human endothelial cells (HUVEC) and fibroblasts modeled by human mesenchymal stem cells (MSCs). The concentration ranges selected for each drug and investigational agent were based upon clinically achievable concentrations if the clinical Cmax of the agent was known.
Compounds. The drugs and investigational agents: BI-3406 (NSC825286), BAY-293 (NSC824723), batoprotafib (TNO155; NSC825523), sotorasib (AMG 510; NSC818433), MRTX1257 (NSC819558), elimusertib (BAY 1895344; NSC800525), molibresib (GSK525762; NSC774829), temuterkib (LY3214996; NSC803410), venetoclax (NSC766270), alisertib (NSC759677), olaparib (NSC753686), talazoparib (NSC767125), erdafitinib (NSC781556), ipatasertib (NSC767898), cabozantinib (NSC761068), nintedanib (NSC756659), abemaciclib (NSC768073), docetaxel (NSC628503), trametinib (NSC758246), and sapanisertib (NSC764658) were obtained from the National Cancer Institute (NCI) Developmental Therapeutics Program Chemical Repository. The FDA-approved anticancer drug set is available from the Developmental Therapeutics Program. […] The stock solutions were prepared in dimethyl sulfoxide (DMSO, Sigma-Aldrich, St. Louis, MO, cat. D2650) at 800-fold the tested concentration and stored at -70 degrees C prior to their use. All drugs and investigational agents were tested over a range starting from a high concentration at or near the clinical Cmax and decreasing in half-log increments. If the clinical Cmax for an agent had not been determined, the highest concentration tested was 10 microM.
Cell Culture. All cells were maintained in an incubator at 37 degrees C and 5% CO2 with 95% humidity. The PDC lines were cultured according to standard operating procedures established by the NCI PDMR (https://pdmr.cancer.gov/sops/default.htm). Briefly, all PDCs were thawed and cultured in Matrigel-coated flasks prepared with a working solution of 1X Ham's F-12 nutrient mix, without supplementation (Invitrogen, Waltham, MA, cat. 11765054), 100 U/mL penicillin-streptomycin (Invitrogen, cat. 15140122), and 2.5% Matrigel (Corning Inc., Corning, NY, cat. 354248) for the first three passages. All PDCs were cultured in complete DMEM/F-12 media containing advanced DMEM/F-12 (Invitrogen, cat. 12634028), 4.9% defined fetal bovine serum, heat inactivated (HyClone Laboratories Inc., Logan, UT, cat. SH30070.03HI), 389 ng/mL hydrocortisone (Sigma-Aldrich, cat. H4001), 9.7 ng/mL human EGF recombinant protein (Invitrogen, cat. PHG0313), 23.4 microg/mL adenine (Sigma-Aldrich, cat. A2786), 97.3 U/mL penicillin-streptomycin (Invitrogen, cat. 15140122), 1.9 mM L-glutamine (Invitrogen, cat. 25030081), and 9.7 microM Y-27632 dihydrochloride (Tocris Bioscience, Bristol, United Kingdom, cat. 1254). The PDCs were cultured in complete DMEM/F12 media without 9.7 microM Y-27632 dihydrochloride for at least two passages prior to the screen. The established cell line HOP-62 was cultured in RPMI 1640 medium, HEPES (Invitrogen, cat. 22400105) with 10% defined fetal bovine serum (HyClone Laboratories Inc., cat. SH30070.03) and 2 mM L-glutamine (Invitrogen, cat. 25030081). The pooled donor HUVEC were cultured in endothelial cell growth medium 2 (PromoCell, Heidelberg, Germany, cat. C-22011) and the hMSC were cultured in mesenchymal stem cell growth medium 2 (PromoCell, cat. C-28009). For all experiments, HUVEC and hMSC were used at passages </=5, while the malignant cell lines were used at passages </=15. […]

[1] = second compound 0.1 µM, first compound 0.0316 µM
[2] = second compound 0.1 µM, first compound 0.1 µM
[3] = second compound 0.1 µM, first compound 0.316 µM
[4] = second compound 0.1 µM, first compound 1 µM
[5] = second compound 0.316 µM, first compound 0.0316 µM
[6] = second compound 0.316 µM, first compound 0.1 µM
[7] = second compound 0.316 µM, first compound 0.316 µM
[8] = second compound 0.316 µM, first compound 1 µM
[9] = second compound 1 µM, first compound 0.0316 µM
[10] = second compound 1 µM, first compound 0.1 µM
[11] = second compound 1 µM, first compound 0.316 µM
[12] = second compound 1 µM, first compound 1 µM
[13] = second compound 3.16 µM, first compound 0.0316 µM
[14] = second compound 3.16 µM, first compound 0.1 µM
[15] = second compound 3.16 µM, first compound 0.316 µM
[16] = second compound 3.16 µM, first compound 1 µM
[17] = second compound 10 µM, first compound 0.0316 µM
[18] = second compound 10 µM, first compound 0.1 µM
[19] = second compound 10 µM, first compound 0.316 µM
[20] = second compound 10 µM, first compound 1 µM
[21] = second compound 0.1 µM, first compound 3.16 µM
[22] = second compound 0.1 µM, first compound 10 µM
[23] = second compound 0.316 µM, first compound 3.16 µM
[24] = second compound 0.316 µM, first compound 10 µM
[25] = second compound 1 µM, first compound 3.16 µM
[26] = second compound 1 µM, first compound 10 µM
[27] = second compound 3.16 µM, first compound 3.16 µM
[28] = second compound 3.16 µM, first compound 10 µM
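Also: spheroids exposed to compounds for 7 days.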
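For viability, T/C in this document: 100% = DMSO vehicle control viability.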

Row | SMILES | IC50 (second compound 0.1 µM) | IC50 (second compound 0.316 µM) | IC50 (second compound 1 µM) | IC50 (second compound 3.16 µM) | viability, T/C [1] | viability, T/C [2] | viability, T/C [3] | viability, T/C [4] | viability, T/C [5] | viability, T/C [6] | viability, T/C [7] | viability, T/C [8] | viability, T/C [9] | viability, T/C [10] | viability, T/C [11] | viability, T/C [12] | viability, T/C [13] | viability, T/C [14] | viability, T/C [15] | viability, T/C [16] | also measured
1 | CCN1CCN(Cc2ccc(Nc3ncc(F)c(-c4cc(F)c5nc(C)n(C(C)C)c5c4)n3)nc2)CC1 + C=CC(=O)N1CCN(c2nc(=O)n(-c3c(C)ccnc3C(C)C)c3nc(-c4c(O)cccc4F)c(F)cc23)C(C)C1 | > 1000 nM | > 1000 nM | > 1000 nM | > 1000 nM | 101% | 96.3% | 143% | 119% | 112% | 118% | 153% | 111% | 102% | 114% | 163% | 83% | 126% | 121% | 155% | 76.8% | IC50 (second compound 10 µM): 743 nM; viability, T/C (second compound 0.1 µM, first compound 0.00316 µM): 90%; viability, T/C (second compound 0.1 µM, first compound 0.01 µM): 107%; viability, T/C (second compound 0.316 µM, first compound 0.00316 µM): 80.8%; viability, T/C (second compound 0.316 µM, first compound 0.01 µM): 85.9%; viability, T/C (second compound 1 µM, first compound 0.00316 µM): 87.3%; viability, T/C (second compound 1 µM, first compound 0.01 µM): 84.8%; viability, T/C (second compound 3.16 µM, first compound 0.00316 µM): 89.5%; viability, T/C (second compound 3.16 µM, first compound 0.01 µM): 92.4%; viability, T/C (second compound 10 µM, first compound 0.00316 µM): 104%; viability, T/C (second compound 10 µM, first compound 0.01 µM): 102%; viability, T/C [17]: 100%; viability, T/C [18]: 143%; viability, T/C [19]: 117%; viability, T/C [20]: 27.9%
2 | COc1cc(Nc2ncc3c(n2)-c2ccc(Cl)cc2C(c2c(F)cccc2OC)=NC3)ccc1C(=O)O + C=CC(=O)N1CCN(c2nc(OCC3CCCN3C)nc3c2CCN(c2cccc4cccc(C)c24)C3)CC1CC#N | > 10000 nM | > 10000 nM | > 10000 nM | 4430 nM | 129% | 142% | 123% | 129% | 124% | 154% | 112% | 134% | 104% | 150% | 153% | 135% | 45% | 130% | 73.1% | 104% | IC50 (second compound 0.0316 µM): > 10000 nM; viability, T/C (second compound 0.0316 µM, first compound 0.0316 µM): 136%; viability, T/C (second compound 0.0316 µM, first compound 0.1 µM): 129%; viability, T/C (second compound 0.0316 µM, first compound 0.316 µM): 144%; viability, T/C (second compound 0.0316 µM, first compound 1 µM): 137%; viability, T/C (second compound 0.0316 µM, first compound 3.16 µM): 138%; viability, T/C (second compound 0.0316 µM, first compound 10 µM): 127%; viability, T/C [21]: 122%; viability, T/C [22]: 140%; viability, T/C [23]: 129%; viability, T/C [24]: 141%; viability, T/C [25]: 121%; viability, T/C [26]: 114%; viability, T/C [27]: 67.1%; viability, T/C [28]: 8.84%
3 | CC1(C)CCC(CN2CCN(c3ccc(C(=O)NS(=O)(=O)c4ccc(NCC5CCOCC5)c([N+](=O)[O-])c4)c(Oc4cnc5[nH]ccc5c4)c3)CC2)=C(c2ccc(Cl)cc2)C1 + CNCc1ccccc1-c1csc(C(C)Nc2nc(C)nc3cc(OC)c(OC)cc23)c1 | 2180 nM | 2190 nM | 2050 nM | 1550 nM | 91.4% | 106% | 97.5% | 92.9% | 94.7% | 101% | 95.2% | 104% | 88.5% | 96.7% | 126% | 132% | 45.1% | 98.6% | 64.8% | 102% | IC50 (second compound 10 µM): < 31.6 nM; viability, T/C [21]: 29.4%; viability, T/C [22]: 4.56%; viability, T/C [23]: 27.4%; viability, T/C [24]: 2.36%; viability, T/C [25]: 13.6%; viability, T/C [26]: 2.22%; viability, T/C [27]: 5.49%; viability, T/C [28]: 0.23%; viability, T/C [17]: 0.25%; viability, T/C [18]: 0.32%; viability, T/C [19]: 1.83%; viability, T/C [20]: 0.35%; viability, T/C (second compound 10 µM, first compound 3.16 µM): 0.66%; viability, T/C (second compound 10 µM, first compound 10 µM): 0.23%
